# US7933647B2, “Methods of increasing lipolysis” (Transfert Plus, S.E.C., priority 2005, dated 2011)
# What was measured:
# adipocytes [1] = experiment: Adipocyte lipolysis measured by glycerol release from isolated adipocytes (Examples I-II); type: cell-based, human; conditions: isoproterenol 10^-4 M, 30 minutes
# Description: Tissue samples. Adipose tissues were obtained from 11 pre-menopaused women, aged under 45, who were undergoing liposuction or an aesthetic surgery in the supra-iliac region. Adipocyte isolation. The adipose tissues were first placed in Krebs buffer and transported to the laboratory. Fragments of fresh adipose tissue were then incubated in a collagenase type II solution (reconstituted in Krebs buffer, 5 mg of collagenase per gm of tissue; Sigma) for 30 minutes at 37° C. under agitation (100 rpm) in a controlled atmosphere (95% O2, 5% CO2) (Rodbell, 1964). After the incubation period, the cellular suspension was filtered through a 250 μm nylon mesh and separated from the stromal and vascular fraction by flotation. […] Adipocytes were counted using a Neubauer hemacytometer using trypan blue dye. […] Because free fatty acids can be re-esterified Inside the adipocyte while glycerol is not, lipolysis was evaluated by measuring the release of glycerol. Glycerol was indirectly measured by assessing the formation of NADH produced during its enzymatic transformation. NADH was measured using a spectrophotometer (Pharmacia LKB-Novaspec), at a wavelength of 340 nm. Results are expressed as μmol of glycerol released per 10^6 adipocytes per 30 minutes. […] The mean and standard deviation were calculated.
# adipocytes [2] = experiment: Adipocyte lipolysis in the biphasic electrical stimulation study, adipocytes from 4 women (Example III); type: cell-based, human; conditions: suprailiac adipocytes of 4 women aged 40-52; non significant level (FIG. 2)
# Description: It was tested if biphasic electrical stimulation can induce lipolysis in adipocyte. 4 women between 40-52 years of age were used as subject. Adipose tissue was obtained from suprailiac areas through liposuction. It is disclosed that isoproterenol (ISO) increased adipocyte lipolysis by 15% i.e. at a non significant level (FIG. 2). […] Moreover, the 4 mA biphasic stimulation increased basal lipolysis by 1.8 x thus at a lower level than the 6 mA stimulation.
compound,measurement,setting,value
CC(C)NCC(O)c1ccc(O)c(O)c1 (stereo not drawn) [isoproterenol],Increase of adipocyte lipolysis compared to control values (BASAL),adipocytes [1],2.6 fold
same,Mean glycerol released (lipolysis),"adipocytes [1]; 37° C., N=11 individuals, BASAL mean 1.4",3.7 μM of glycerol
same,Increase of adipocyte lipolysis,adipocytes [2],15%
